# Source: patent US20090054491A1, “Use” (AstraZeneca AB, priority 2005, published 2009)
# Tested on: Female C57Bl6 mice
# Assay: Pharmacodynamic effect in mouse (intake of bland and palatable paste after fasting, body weight change)
# Format: in vivo
# Procedure: Female C57Bl6 mice (19-21 g) are singly housed for 7-days with ad libitum access to a “bland-paste” made from normal laboratory chow (R-3 Lactanin, Vadstena, Sweden) or to a “palatable-paste” of similar consistency containing oatmeal, butter, sugar, cocoa powder, cocoa butter and peanut butter. The day before the experimental day, food is removed for 12 hours. O the experiment day, animals are weighed and compound or vehicle is administered. Animals are returned to their home cages and given access to weighed amounts of both bland and palatable pastes. This food is then re-weighed 2, and optionally 4 and 6 hours later, and consumption of each food type calculated by the difference from initial food weight. Animals are further weighed at 24 hours after administration, and change in body weight over the treatment period is calculated.
compound,measurement,setting,value
"COCc1cc(C#N)cc(-c2nc(-c3ccc(F)cn3)no2)c1 [3-[3-(5-fluoropyridin-2-yl)-1,2,4-oxadiazol-5-yl]-5-(methoxymethyl)benzonitrile]",body weight recovery after fasting,"compared to vehicle treated animals, FIG. 2",slower body weight recovery
same,effect on normal laboratory chow (intake),"measured 2 hours after treatment, bland paste, fasted mice, FIG. 1",no effect
same,intake of sweets,"measured 2 hours after treatment, palatable paste, fasted mice, FIG. 1",decreased intake of sweets measured 2 hours after treatment in a dose-related manner
